# Data from patent US9284345B2 (priority 2007, dated 2016).
# Where “and” joins values, the source holds several entries; their conditions need not be identical. Equal values may be shown once.
# How the values were obtained:
# [1] = test system: Shionogi mouse mammary carcinoma cells; assay: cells; type: cell-based; conditions: for Ki: read-out: Shionogi cells Antiandrogenic activity Ki; for % of inh of DHT at 10^−7 M (Basal = 100%): 0.0003 µM
# Rat Androgen Receptor = target: T1, Rat Androgen Receptor (Rattus norvegicus, UniProt P15207); assay: Androgen receptor binding assay (HAP, [3H]R1881), rat prostate cytosol
# T1 construct: ventral prostates collected from 24 h-gonadectomized rats were homogenized in buffer A; from tissue; host or cells: rat ventral prostate cytosol (24 h-gonadectomized rats)
# T1 sequence (P15207 1-902): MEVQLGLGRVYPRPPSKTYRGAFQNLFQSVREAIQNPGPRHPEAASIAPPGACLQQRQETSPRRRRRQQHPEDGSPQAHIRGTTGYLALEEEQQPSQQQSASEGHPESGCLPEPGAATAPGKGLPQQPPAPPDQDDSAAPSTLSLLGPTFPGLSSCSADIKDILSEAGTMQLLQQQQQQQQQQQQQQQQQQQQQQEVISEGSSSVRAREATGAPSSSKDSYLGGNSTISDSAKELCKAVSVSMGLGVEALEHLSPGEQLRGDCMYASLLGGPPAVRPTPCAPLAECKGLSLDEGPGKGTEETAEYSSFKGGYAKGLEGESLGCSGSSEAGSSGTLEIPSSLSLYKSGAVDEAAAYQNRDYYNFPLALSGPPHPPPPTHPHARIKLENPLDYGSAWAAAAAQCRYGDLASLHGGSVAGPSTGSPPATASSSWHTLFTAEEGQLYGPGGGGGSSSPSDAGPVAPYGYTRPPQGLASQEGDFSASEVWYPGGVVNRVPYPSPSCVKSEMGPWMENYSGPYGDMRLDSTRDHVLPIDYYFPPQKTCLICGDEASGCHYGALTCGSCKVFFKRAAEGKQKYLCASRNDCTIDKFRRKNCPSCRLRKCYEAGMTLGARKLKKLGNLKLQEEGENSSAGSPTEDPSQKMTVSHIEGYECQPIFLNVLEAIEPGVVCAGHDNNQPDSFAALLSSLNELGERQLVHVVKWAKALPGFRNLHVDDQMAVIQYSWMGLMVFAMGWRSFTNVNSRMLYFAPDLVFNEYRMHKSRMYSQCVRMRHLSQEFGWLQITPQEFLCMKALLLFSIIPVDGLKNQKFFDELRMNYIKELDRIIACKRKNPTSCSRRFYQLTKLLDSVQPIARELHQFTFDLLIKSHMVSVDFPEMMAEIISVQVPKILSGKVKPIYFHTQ
# Method: On the morning of the binding assay, ventral prostates collected from 24 h-gonadectomized rats were homogenized in buffer A (1 g of tissue in 5 mL) and the homogenate was centrifuged as described above.
# Androgen binding is measured using the hydroxylapatite (HAP) assay. In brief, the radioactive steroid [^3H]R1881 solubilized in ethanol is diluted with buffer B (10 mM Tris-HCl, 1.5 mM EDTA disodium salt, 10 mM α-monothioglycerol, pH 7.4). Aliquots of the cell or prostate cytosol preparation (0.1 ml) are then incubated with 5 nM [^3H]R1881 (0.1 ml, ˜100 000 cpm) in the presence or absence of the indicated concentrations of unlabeled compounds (0.1 ml, prepared in buffer B containing 30% ethanol) for 16-18 h at 0-4° C. Triamcinolone acetonide (TAC; 100 nM) is added to mask progesterone receptors. Unbound steroids are separated by incubation for 40 min at 0-4° C. with 0.3 ml HAP prepared in buffer P (50 mM Tris-HCl, 10 mM KH2PO4, pH 7.4). After incubation with HAP and 10 min of centrifugation at 1000×g, the pellet is washed 3 times with 1 ml of buffer P. Thereafter, the radioactivity is extracted from the pellet by incubation at room temperature for 60 min with 1 ml of ethanol. After centrifugation, the supernatant is decanted into a scintillation vial and the pellet is extracted again with ethanol. After the addition of scintillation liquid, the radioactivity is measured in a liquid scintillation counter.
# Human Androgen Receptor = target: T2, Human Androgen Receptor (Homo sapiens, UniProt P10275); type: binding
# T2 construct: expressed in transfected cells; host or cells: HEK-293 cells stably transfected with the pCMVneo-hAR plasmid (G-418 selection); cytosol used
# T2 sequence (P10275 1-920): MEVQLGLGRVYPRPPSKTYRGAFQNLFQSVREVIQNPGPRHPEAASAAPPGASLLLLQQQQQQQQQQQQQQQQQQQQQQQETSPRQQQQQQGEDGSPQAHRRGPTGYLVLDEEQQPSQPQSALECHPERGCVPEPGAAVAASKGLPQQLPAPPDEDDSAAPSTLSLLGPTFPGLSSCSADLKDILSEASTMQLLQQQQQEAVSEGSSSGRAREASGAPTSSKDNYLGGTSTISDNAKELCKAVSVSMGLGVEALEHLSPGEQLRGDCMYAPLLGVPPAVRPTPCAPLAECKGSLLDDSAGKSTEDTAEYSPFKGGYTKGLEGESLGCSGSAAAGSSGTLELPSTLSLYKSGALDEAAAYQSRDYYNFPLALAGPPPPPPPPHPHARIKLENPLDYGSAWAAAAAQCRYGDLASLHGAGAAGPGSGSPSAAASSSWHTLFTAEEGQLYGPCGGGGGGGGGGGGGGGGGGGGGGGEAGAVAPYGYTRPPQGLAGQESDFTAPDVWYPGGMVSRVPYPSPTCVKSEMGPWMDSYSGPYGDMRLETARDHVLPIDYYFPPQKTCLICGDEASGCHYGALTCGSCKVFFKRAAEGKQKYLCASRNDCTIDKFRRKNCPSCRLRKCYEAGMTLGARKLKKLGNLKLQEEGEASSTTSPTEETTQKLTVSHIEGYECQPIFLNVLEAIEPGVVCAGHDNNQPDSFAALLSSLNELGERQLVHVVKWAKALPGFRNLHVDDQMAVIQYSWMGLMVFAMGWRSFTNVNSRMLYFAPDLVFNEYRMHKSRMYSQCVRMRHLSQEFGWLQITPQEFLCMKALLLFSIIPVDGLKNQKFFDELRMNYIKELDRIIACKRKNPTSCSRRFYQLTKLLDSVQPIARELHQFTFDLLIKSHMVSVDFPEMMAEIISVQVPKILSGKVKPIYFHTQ
# Immature Rat CX = conditions: for In Vivo Agonist % Change vs CX (DHT = +100%) SV / In Vivo Agonist % Change vs CX (DHT = +100%) VP: po
# Immature Rat CX + DHT = assay: animal or person; type: in vivo; conditions: rat, in vivo; for In Vivo Anti-A Rat CX + DHT % change vs DHT (CX CONT = −100%) Bulbo / In Vivo Anti-A Rat CX + DHT % change vs DHT (CX CONT = −100%) SV / In Vivo Anti-A Rat CX + DHT % change vs DHT (CX CONT = −100%) VP: po
# Intact Rat = assay: In vivo activity in intact rat (organ and muscle weight)
# androgen receptor = assay: Antiandrogen / SARM / androgen profile observed on structural change; conditions: structure-activity observation in estratriene derivatives
# Description: Preferred positions on the steroid to this change in activities are 3, 4, 11β, 16 and 17α. […] Moreover, when we changed the 4-fluoro by a 4-chloro on EM-6583, we obtained a pure androgen (EM-5697). Similarly, when we increased the size of the chain at 17α-position on (1,4-phenylene as a spacer group), EM-8419 became a SARM. Again, when we changed the 4-fluoro by a 4-chloro on EM-8419, we obtained a pure androgen (EM-5313).
# We also believed that a larger size increase could reverse the observed tendency (androgen to SARM or antiandrogen). Thus, it is not obvious to make good predictions of the biological activity of this compound family but some trends are observable.
Compound,Shionogi cells Antiandrogenic activity Ki OH-Flu/Ki compound [1],Ki [1] [nM],Rat Androgen Receptor Binding RBA (%) R1881 = 100% (Rat Androgen Receptor) [%],Human Androgen Receptor Binding RBA (%) R1881 = 100% (Human Androgen Receptor),% of stim of basal at 10^−7M (% over basal) [1],% of stim of basal at 10^−7 M (DHT = 100%) [1],In Vivo Agonist Rat CX % change vs CX (DHT CONT = +100%) Bulbo (Immature Rat CX),In Vivo Agonist Rat CX % change vs CX (DHT CONT = +100%) SV (Immature Rat CX),In Vivo Agonist Rat CX % change vs CX (DHT CONT = +100%) VP (Immature Rat CX),In Vivo Anti-A Rat CX + DHT % change vs DHT (CX CONT = −100%) SV (Immature Rat CX + DHT) [%],In Vivo Anti-A Rat CX + DHT % change vs DHT (CX CONT = −100%) VP (Immature Rat CX + DHT) [%],"In Vivo Intact Rat % change vs Intact CONT (Intact CONT = +100%; CX CONT = 0%) SZ (Intact Rat; rat, in vivo)",also measured
CC12CCC3c4ccc(C#N)c(F)c4CCC3C1CCC2(O)Cc1cc[n+]([O-])cc1F (stereo not shown) [EM-8454],2.7,2.2,~0.3,~1%,,,,,,,,,In Vivo Agonist % Change vs CX (DHT = +100%) SV (Immature Rat CX): 0%; In Vivo Agonist % Change vs CX (DHT = +100%) VP (Immature Rat CX): 0%
CCC1CC2(C)C(CCC2(O)Cc2cc[n+]([O-])cc2F)C2CCc3c(ccc(C#N)c3F)C12 (stereo not shown) [EM-9017],,,,139%,+36%,+31%,+102 ± 12%,+22 ± 2%,+24 ± 5%,−54 ± 2,−42 ± 2,+57 ± 6%,"% of inh of DHT at 10^−7 M (Basal = 100%) [1]: +64%; In Vivo Anti-A Rat CX + DHT % change vs DHT (CX CONT = −100%) Bulbo (Immature Rat CX + DHT): +3 ± 11%; In Vivo Intact Rat % change vs Intact CONT (Intact CONT = +100%; CX CONT = 0%) Bulbo (Intact Rat; rat, in vivo): +154 ± 13%; In Vivo Intact Rat % change vs Intact CONT (Intact CONT = +100%; CX CONT = 0%) VP (Intact Rat; rat, in vivo): +47 ± 5%; inhibition of intact rat prostate (Intact Rat; rat, in vivo): 53±5%; inhibition of intact rat seminal vesicles (Intact Rat; rat, in vivo): 43±6%; stimulation of the bulbocavernosus muscles in intact rat (Intact Rat; rat, in vivo): 54±13%"
Cc1c(C#N)ccc2c1CCC1C2CCC2(C)C1CCC2(O)Cc1cc[n+]([O-])cc1 (stereo not shown) [EM-5985],12 and 12 ± 4,0.9 ± 0.2,0.6,2.0 ± 0.3%,,,,,,,,,activity on the basal level of Shionogi cell proliferation [1]: none of these compounds has any activity; affinity for the human compared to the rat androgen receptor (Human Androgen Receptor): approximately 3 fold; In Vivo Agonist % Change vs CX (DHT = +100%) SV (Immature Rat CX): [0] %; In Vivo Agonist % Change vs CX (DHT = +100%) VP (Immature Rat CX): [0] %; inhibition of DHT-stimulated seminal vesicle weight (Immature Rat CX + DHT): 84%; inhibition of DHT-stimulated ventral prostate weight (Immature Rat CX + DHT): 69%; potency on rat androgen-sensitive parameters relative to currently available antiandrogens (Immature Rat CX + DHT): approximately 5 times
C[C@]12CCC3c4ccc(C#N)c(Cl)c4CCC3C1CC[C@@]2(O)Cc1ccc(-c2ccc[n+]([O-])c2)cc1 (stereo partly shown) [EM-5313],,,,,,,,,,,,,"activity profile (antiandrogen, SARM or androgen) (androgen receptor): pure androgen"
CC[C@H]1C[C@@]2(C)C(CC[C@@]2(O)Cc2ccncc2F)C2CCc3c(ccc(C#N)c3F)C21 (stereo partly shown) [EM-9016],,,,2250% and 2250 ± 570%,+45%,+39%,+66 ± 25%,+17 ± 1%,+13 ± 2%,−39 ± 5,−44 ± 3,+44 ± 6%,"inhibition at 0.0003 µM ([1]; Mus musculus, read-out: % of inh of DHT at 10^−7 M (Basal = 100%)): 46%; In Vivo Anti-A Rat CX + DHT % change vs DHT (CX CONT = −100%) Bulbo (Immature Rat CX + DHT): +10 ± 9%; In Vivo Intact Rat % change vs Intact CONT (Intact CONT = +100%; CX CONT = 0%) Bulbo (Intact Rat; 0.1 mg/rat/os/ID, bulbocavernosus muscles weight): +108 ± 21%; In Vivo Intact Rat % change vs Intact CONT (Intact CONT = +100%; CX CONT = 0%) VP (Intact Rat; 0.1 mg/rat/os/ID, prostate weight): +53 ± 6%"
CC1CC2(C)C(CCC2(O)Cc2cc[n+]([O-])cc2)C2CCc3c(ccc(C#N)c3Cl)C12 (stereo not shown) [EM-5697],,,,,,,,,,,,,"activity profile (antiandrogen, SARM or androgen) (androgen receptor): pure androgen"
C[C@H]1C[C@@]2(C)C(CC[C@@]2(O)Cc2ccncc2)C2CCc3c(ccc(C#N)c3F)C21 (stereo partly shown) [EM-6582],,,,331%,+145 ± 78%,+41 ± 22%,+71 ± 15%,+18 ± 3%,+37 ± 3%,−60 ± 6,−36 ± 1,+49 ± 5%,"% of inh of DHT at 10^−7 M (Basal = 100%) [1]: +59 ± 22%; In Vivo Intact Rat % change vs Intact CONT (Intact CONT = +100%; CX CONT = 0%) Bulbo (Intact Rat; rat, in vivo): +197 ± 29%; In Vivo Intact Rat % change vs Intact CONT (Intact CONT = +100%; CX CONT = 0%) VP (Intact Rat; rat, in vivo): +72 ± 6%"
Cc1c[n+]([O-])ccc1CC1(O)CCC2C3CCc4c(ccc(C#N)c4F)C3CCC21C (stereo not shown) [EM-8505],4.4,4.2,~0.3,~0.3%,,,,,,,,,
